From US10227331B2 (priority 2015, dated 2019)

How the values were obtained:
[1] = target: IMP-1 (Serratia marcescens, UniProt P52699); test: biochemical; type: biochemical; details: CCF2-FA substrate, 2 hours at 25° C; read-out: IMP-1 IC50
Summary of the method: (§1)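 Fluorescence assay of metallo-β-lactamase activity using CCF2-FA, a cephalosporin-linked 7-hydroxycoumarin–fluorescein substrate. Inhibitor, enzyme and substrate were incubated together for 2 hours at 25° C. IC50 came from a 4-parameter fit of inhibition versus inhibitor concentration.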

[2] = target: NDM-1 (Klebsiella pneumoniae, UniProt C7C422); test: biochemical; type: biochemical; details: CCF2-FA substrate, 2 hours at 25° C; read-out: NDM-1 IC50
Chain of NDM-1 (C7C422 whole entry, looked up, species assumed): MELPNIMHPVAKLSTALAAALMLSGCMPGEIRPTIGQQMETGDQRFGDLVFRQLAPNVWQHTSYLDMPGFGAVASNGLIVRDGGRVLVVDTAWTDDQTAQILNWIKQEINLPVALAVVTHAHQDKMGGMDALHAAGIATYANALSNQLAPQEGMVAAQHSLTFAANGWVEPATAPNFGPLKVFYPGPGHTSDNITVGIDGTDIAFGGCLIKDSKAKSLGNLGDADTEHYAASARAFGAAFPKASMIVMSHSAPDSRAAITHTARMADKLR
Summary of the method: as §1

[3] = target: VIM-1 (Pseudomonas aeruginosa (strain ATCC 15692 / DSM 22644 / CIP 104116 / JCM 14847 / LMG 12228 / 1C / PRS 101 / PAO1), UniProt A0A0F7KYQ8); test: biochemical; details: CCF2-FA substrate, 2 hours at 25° C
Summary of the method: as §1

[4] = tested on: Escherichia coli expressing NDM-1 (CLB30005, CLB30016); type: cell-based; details: with imipenem 1 μg/ml, 95% inhibition of bacterial growth; for Escherichia coli MITC95: NDM-1 (CLB30016)
Summary of the method: (§2)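 Clinical strains grown overnight on blood agar, then diluted 1:100 in 1.1× CAMHB and exposed to test compound with imipenem at 1 μg/ml. Incubation was 22–24 h at 35° C; growth was read by absorbance to find the compound concentration restoring imipenem susceptibility.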

[5] = tested on: Klebsiella pneumoniae expressing VIM-1 (IHMA599644); type: cell-based; details: with imipenem 1 μg/ml, 95% inhibition of bacterial growth; for Klebsiella pneumoniae MITC95: VIM-1 (IHMA599644)
Summary of the method: as §2

[6] = tested on: Serratia marcescens expressing IMP-1 (CL5741); type: cell-based; details: with imipenem 1 μg/ml, 95% inhibition of bacterial growth; for Serratia marcescens MITC95: IMP-1 (CL5741)
Summary of the method: as §2

[7] = tested on: P. aeruginosa expressing IMP-1, efflux+ (MB9798); type: cell-based, Pseudomonas aeruginosa; details: for P. aeruginosa expressing IMP-1, efflux+ (MB9798) MITC95: imipenem at 2 μg/mL, in the presence of a class A, C, D serine β-lactamase inhibitor closely related to relebactam; for Efflux ratio: ratio MITC95 PA_9798/MITC95 PA_9799
Description: (§3) The strain background is Pseudomonas aeruginosa PAO1.

[8] = tested on: P. aeruginosa expressing IMP-1, efflux− (MB9799); test: Efflux: concentration of MBL inhibitor which restores susceptibility to imipenem; type: cell-based, Pseudomonas aeruginosa; details: imipenem at 2 μg/mL, in the presence of a class A, C, D serine β-lactamase inhibitor closely related to relebactam
Description: as §3

Chain of IMP-1 (P52699 whole entry, looked up, species assumed): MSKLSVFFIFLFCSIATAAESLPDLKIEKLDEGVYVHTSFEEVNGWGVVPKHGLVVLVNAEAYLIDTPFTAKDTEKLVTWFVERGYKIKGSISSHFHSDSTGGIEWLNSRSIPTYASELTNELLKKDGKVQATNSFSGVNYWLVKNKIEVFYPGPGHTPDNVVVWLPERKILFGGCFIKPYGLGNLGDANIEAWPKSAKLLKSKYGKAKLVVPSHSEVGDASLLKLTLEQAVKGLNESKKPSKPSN

| SMILES | IC50 [1] | IC50 [2] | IC50 [3] | Escherichia coli MITC95 [4] | Klebsiella pneumoniae MITC95 [5] | Serratia marcescens MITC95 [6] | P. aeruginosa expressing IMP-1, efflux+ (MB9798) MITC95 [7] | Efflux ratio [7] | P. aeruginosa expressing IMP-1, efflux− (MB9799) MITC95 [8] | Escherichia coli expressing NDM-1 (CLB30016) MITC95 [4] | Klebsiella pneumoniae expressing VIM-1 (IHMA599644) MITC95 [5] | Serratia marcescens expressing IMP-1 (CL5741) MITC95 [6] |
| --- | --- | --- | --- | --- | --- | --- | --- | --- | --- | --- | --- | --- |
| NC[C@@H](O)CS(=O)(=O)c1ccc(-c2cccc3[nH]c(N)nc23)c(-c2nn[nH]n2)c1S(N)(=O)=O [Example 312, 3-(2-amino-1H-benzo[d]imidazol-4-yl)-6-((R)-3-amino-2-hydroxypropylsulfonyl)-2-(2H-tetrazol-5-yl)benzenesulfonamide] | 0.43 nM | 0.12 nM | 0.389 nM | 0.3477 µM | 0.8542 µM | 0.5573 µM | 0.2786 µM | 0.50 | 0.5573 µM |  |  |  |
| CNC(=O)c1ccc(-c2ccc(S(=O)(=O)CCN)c(S(N)(=O)=O)c2-c2nnn[nH]2)cn1.O=C(O)C(F)(F)F [Example 139, 2-((4-(6-(methylcarbamoyl)pyridin-3-yl)-2-sulfamoyl-3-(1H-tetrazol-5-yl)phenyl)sulfonyl)ethanaminium 2,2,2-trifluoroacetate] | 3.32 nM | 3.96 nM | 2.04 nM |  |  |  | 12.5 µM | 8.00 | 1.563 µM | 1.563 µM | 6.25 µM | 3.125 µM |
| Nc1ncccc1-c1cc(-c2ccc(S(=O)(=O)C3CNC3)c(S(N)(=O)=O)c2-c2nnn[nH]2)ccn1 [Example 310, 3-(2′-Amino-[2,3′-bipyridin]-4-yl)-6-(azetidin-3-ylsulfonyl)-2-(1H-tetrazol-5-yl)benzenesulfonamide] | 2.3 nM | 1.04 nM | 0.319 nM | 1.563 µM | 3.125 µM | 1.563 µM | 25 µM | 15.99 | 1.563 µM |  |  |  |
| NS(=O)(=O)c1c(S(=O)(=O)C2CNC2)ccc([C@H]2CC[C@@H](N)CC2)c1-c1nnn[nH]1 [Example 213, 3-((1s,4s)-4-aminocyclohexyl)-6-(azetidin-3-ylsulfonyl)-2-(1H-tetrazol-5-yl) benzenesulfonamide] | 68.3 nM | 12.9 nM | 7.04 nM |  |  |  | 6.25 µM | 4.00 | 1.563 µM | 1.563 µM | 3.125 µM | 1.563 µM |
| C[C@@H](CN)S(=O)(=O)c1ccc(-c2cccc3c2nc(N)n3C)c(-c2nn[nH]n2)c1S(N)(=O)=O [Example 280, 3-(2-amino-1-methyl-1H-benzo[d]imidazol-4-yl)-6-((S)-1-aminopropan-2-ylsulfonyl)-2-(2H-tetrazol-5-yl)benzenesulfonamide] | 0.954 nM | 0.224 nM | 0.445 nM | 0.3906 µM | 1.563 µM | 0.7813 µM | 3.125 µM | 4.00 | 0.7813 µM |  |  |  |
| Nc1nc2cc(F)cc(-c3ccc(S(=O)(=O)C4CNC4)c(S(N)(=O)=O)c3-c3nnn[nH]3)c2[nH]1 [Example 262, 3-(2-amino-5-fluoro-1H-benzo[d]imidazol-7-yl)-6-(azetidin-3-ylsulfonyl)-2-(1H-tetrazol-5-yl) benzenesulfonamide] | 0.506 nM | 0.0803 nM | 0.322 nM | 0.7813 µM | 3.125 µM | 1.563 µM | 0.7813 µM | 1.00 | 0.7813 µM |  |  |  |
| NS(=O)(=O)c1c(S(=O)(=O)C2CNC2)ccc(-c2ccc(C3CCNCC3)cc2)c1-c1nn[nH]n1 [Example 6] | 0.212 nM | 0.307 nM | 0.195 nM |  |  |  | 0.7813 µM | 1.00 | 0.7813 µM | 0.7813 µM | 1.563 µM | 1.563 µM |
| CS(=O)(=O)N1CC(S(=O)(=O)c2ccc(-c3cccc4[nH]c(N)nc34)c(-c3nn[nH]n3)c2S(N)(=O)=O)C1 [Example 55, 3-(2-amino-1H-benzo[d]imidazol-4-yl)-6-(1-(methylsulfonyl)azetidin-3-ylsulfonyl)-2-(2H-tetrazol-5-yl)benzenesulfonamide] | 1.42 nM | 0.0818 nM | 0.312 nM |  |  |  | 50 µM | 31.99 | 1.563 µM | 3.125 µM | 6.25 µM | 3.125 µM |
| Cn1cc2ccc(-c3ccc(S(=O)(=O)CCN)c(S(N)(=O)=O)c3-c3nnn[nH]3)cc2n1.O=C(O)C(F)(F)F [Example 154, 2-((4-(2-methyl-2H-indazol-6-yl)-2-sulfamoyl-3-(1H-tetrazol-5-yl)phenyl)sulfonyl)ethanaminium 2,2,2-trifluoroacetate] | 0.676 nM | 1.13 nM | 0.43 nM |  |  |  | 12.5 µM | 8.00 | 1.563 µM | 3.125 µM | 6.25 µM | 3.125 µM |
